Assay results taken from patent publication US11142550B2, “Split inteins with exceptional splicing activity” (THE TRUSTEES OF PRINCETON UNIVERSITY, priority 2016, dated 2021).
Entries after “also recorded” stand apart in the source; their conditions may differ.

Legend:
[1] = test system: split intein constructs with short native extein sequences; experiment: in vitro protein trans-splicing (PTS) assay, RP-HPLC / ESI-MS kinetics; assay type: biochemical
Description: Thus, attention was focused on ‘second shell’ residues, those directly adjacent to the active site. To simplify this analysis, a batch mutagenesis strategy was employed in conjunction with a previously reported in vitro PTS assay.^5 This assay uses split intein constructs with short native extein sequences and allows the rates of branched intermediate formation (k1,k2) and its resolution to final splice products (k3) to be determined using a three state kinetic model.
Splicing reactions were carried out as adapted from a previously described protocol. Briefly, N- and C-inteins (15 μM Int^N, 10 μM Int^C) were individually preincubated in splicing buffer (100 mM sodium phosphates, 150 mM NaCl, 1 mM EDTA, pH 7.2) with 2 mM TCEP for 15 minutes. All splicing reactions were carried out at 30° C. unless otherwise indicated. Splicing reactions comparing the tolerance of Npu and Cfa to chaotropic agents were carried out with the indicated concentration of either Urea or guanidine hydrochloride. Splicing was initiated by mixing equal volumes of N- and C-inteins with aliquots removed at the indicated times and quenched by the addition of 8M guanidine hydrochloride, 4% TFA (3:1 v/v). For all splicing reactions containing either Npu^C-CFN or Cfa^C-CFN, reaction progress was monitored by RP-HPLC. […] (15 minute preincubation) were both observed to be inefficient, reaching ˜50% completion. This is likely due to aggregation (and inactivation) of the N-intein. Note, shorter preincubations of Cfa at 80° C. led to more efficient splicing.
Kinetic analysis was carried out as previously described.^1 Briefly, five species (1-5) are separated by RP-HPLC, and peak areas are determined. For ESI-MS, peak areas are calculated for species 1-4. Each individual peak was normalized against the total area of all peaks combined and reaction progress curves were plotted (n=3). The data were then fit in ProFit to the analytical solution to the coupled differential rate equation for the three state kinetic splicing model. Because the starting material cannot be separated from the linear thioester using this assay, the three state kinetic model collapses the binding step and the first two steps of the splicing reaction into one equilibrium. Each splicing reaction was carried out in triplicate with each replicate analyzed separately. The mean and standard deviation for all values (n=3) are reported.
All splicing reactions comparing Npu and Cfa were separated by RP-HPLC with peak areas once again calculated using the manufacturer's software. For these reactions, peak areas for the starting material and branched intermediate (species 1 and 2) and product (species 3, 4, 5) were calculated. The data was then fit to the first order rate equation using the GraphPad Prism software. [P](t)=[P]max·(1−e^−kt)
Where [P] is the normalized intensity of product, [P]max is this value at t=∞ (the reaction plateau), and k is the rate constant (s^−1). The mean and standard deviation (n=3) are reported.

[2] = refolding of N-inteins by stepwise dialysis; assay type: physicochemical; conditions: stepwise dialysis into lysis buffer, 4° C.
Method: The N-inteins were refolded by stepwise dialysis into lysis buffer with 0.5 mM DTT at 4° C. This refolded protein was then treated with 10 mM TCEP and Ulp1 protease (overnight, RT) to cleave the His6-SUMO expression tag. The solution was then mixed with 4 mL Ni-NTA resin and incubated for 30 minutes at 4° C. The slurry was applied to a fritted column and the flow through was collected together with a 3 CV wash with lysis buffer. The protein was then treated with 10 mM TCEP, concentrated to 10 mL, and further purified by size exclusion chromatography using an S75 16/60 gel filtration column employing degassed splicing buffer (100 mM sodium phosphate, 150 mM NaCl, 1 mM EDTA, pH 7.2) as the mobile phase. Fractions were analyzed by SDS-PAGE, analytical RP-HPLC, and ESI-MS. Pure protein was stored by flash-freezing in liquid N2 following the addition of glycerol (20% v/v).

[3] = test system: split aminoglycoside phosphotransferase (KanR) in E. coli; experiment: protein splicing coupled kanamycin resistance (Kan^R) assay; assay type: cell-based; conditions: +2 position of the C-extein
Method: The protein splicing coupled kanamycin resistance (Kan^R) assay was carried out as previously described.^2,9 Briefly, a plasmid coding for a fragmented aminoglycoside phosphotransferase fused to a split intein (Cfa) with either F, G, R, or E present at the +2 position of the C-extein (plasmids 22-25) was transformed into DH5α competent cells and grown in starter cultures overnight (LB Broth, 100 μg/mL ampicillin, 18 hrs). These cultures were then diluted twenty-fold into a 96 well plate, and E. coli growth was measured at various concentrations of kanamycin (2.5, 10, 25, 50, 100, 250, 1000 μg/mL kanamycin with 100 μg/mL ampicillin). The cell optical density at 650 nm (OD650) at the 24-hour end point was fit to a dose response curve with variable slope.
Where ODmin was fixed to background absorbance at 650 nm. Each assay was carried out in triplicate, fit separately, and IC50 values are reported as the mean and standard deviation of IC50 for these three separate measurements.
The kanamycin resistance protein, KanR, is split and fused to N- and C-intein fragments (Cfa^N and Cfa^C). The +2 C-extein residue (red X) is varied in the system. In Panel B, IC50 values for kanamycin resistance of the CfaEKD (WT) and CfaGEP (GEP) inteins with indicated +2 C-extein residue are shown (error=standard error (n=3)).

Cfa^C-CFN = experiment: protein trans-splicing of extracted inclusion body under denaturing conditions; assay type: biochemical; conditions: extracted from inclusion bodies with 6M urea
Method: E. coli inclusion bodies containing His6-Sumo-Cfa^N expression (plasmid 20) were resuspended and extracted overnight at 4° C. in lysis buffer containing 6M urea. Following centrifugation (35,000 rcf, 30 min), the supernatant was removed and the protein enriched by Ni-NTA under denaturing conditions (as described above). However, instead of refolding the protein, trans-splicing was directly initiated by the addition of Cfa^C-CFN (10 μM Cfa^C, 2 mM TCEP, 2 mM EDTA, 2 hrs, RT). Reaction progress was monitored by SDS-PAGE.

[4] = test system: split intein constructs with short native extein sequences; conditions: 30° C.; cited from earlier work

For “A136S: A136S point mutant on the Ssp^C intein; plasmid 19, SEQ ID NO: 379 [Compound A136S]”, which “effect of mutation on branch formation” value ([1]; mutation on Ssp^C) is on record?
The value was “no impact”.

What about the “effect of mutation on rate of branch resolution” value ([1]; mutation on Ssp^C) of the same substance?
Its value is “two fold”.

What does the source list for “Batch 3: Ssp^N batch mutant (S23E, E24K, E25R, N27E); plasmid 13, SEQ ID NO: 373”?
precipitation during the refolding step [2]: significant protein precipitation was observed; splicing completion ([1]; 30° C.): ~50%

With “Cfa: consensus fast DnaE split intein; Cfa^N SEQ ID NO: 2, Cfa^C SEQ ID NO: 3” as the substance, how does the “C-extein +2 residue preference” value [3] read?
The value was “retains the preference for a bulky hydrophobic residue”.

And the “splicing rate constant k (residual activity)” value ([1]; 4M GuHCl)?
The value was 7e-05 s⁻¹.

What about the splicing in urea ([1]; 8M urea) of the same substance?
The splicing in urea was “largely unaffected”.

What about the “branch formation rate, increase over Npu” value ([1]; 30° C., relative to Npu) of the same substance?
The value was 3 fold.

And the “branch resolution rate, increase over Npu” value ([1]; 30° C., relative to Npu)?
Its value is 2 fold.

What about the “splices faster than Npu” value ([1]; 30° C., relative to Npu) of the same substance?
Its value is 2.5 fold.

What about the “splicing activity at 80° C.” value ([1]; 80° C.) of the same substance?
Its value is “maintains activity at 80° C., albeit with reduced yield of splice products”.

And the splicing completion ([1]; 80° C., 15 minute preincubation)?
Its splicing completion is ~50%.

What about the “GuHCl concentration up to which the intein splices” value ([1]; guanidine hydrochloride added) of the same substance?
Its value is “up to 4 M”.

What about the “splicing activity in GuHCl” value ([1]; up to 3M GuHCl) of the same substance?
The value was “little decrease in activity”.

With “Cfa^N fusion: model fusion protein His6-SUMO-AEY-Cfa^N; plasmid 20, SEQ ID NO: 381” as the substance, how does the “modification by PTS without refolding” value (Cfa^C-CFN) read?
The value was “efficiently, modified by PTS”.

What does the source list for “Npu: DnaE split intein from Nostoc punctiforme PCC73102; SEQ ID NO: 5 and 6 [reference compound]”?
rate of protein trans-splicing (PTS), t1/2 [4]: 50 s; splicing in urea ([1]; 8M urea): inactive; splicing activity at 80° C. ([1]; 80° C.): inactive; splicing in urea ([1]; above 4M urea): falls off dramatically; splicing activity in GuHCl ([1]; ≥3M GuHCl (3M in FIG. 2 legend)): no activity was observed; also recorded: inactive
